From patent US8119681B2, “2-[1-phenyl-5-hydroxy or methoxy-4alpha-methyl-hexahydrocyclopenta [ƒ]indazole-5-YL]ethyl phenyl derivatives as glucocorticoid receptor ligands” (Merck Sharp & Dohme Corp., priority 2006, dated 2012)

biological target: T1, glucocorticoid receptor (GR) (Homo sapiens, UniProt P04150); assay: Ligand binding assay (GR BIND), 3H-dexamethasone displacement, HeLa cell lysate; conditions: Table 1; HeLa cell lysate, 3H-DEX
T1 construct: endogenous in cells; host or cells: HeLa (ATCC) cell lysate supernatant
T1 sequence (P04150 1-777): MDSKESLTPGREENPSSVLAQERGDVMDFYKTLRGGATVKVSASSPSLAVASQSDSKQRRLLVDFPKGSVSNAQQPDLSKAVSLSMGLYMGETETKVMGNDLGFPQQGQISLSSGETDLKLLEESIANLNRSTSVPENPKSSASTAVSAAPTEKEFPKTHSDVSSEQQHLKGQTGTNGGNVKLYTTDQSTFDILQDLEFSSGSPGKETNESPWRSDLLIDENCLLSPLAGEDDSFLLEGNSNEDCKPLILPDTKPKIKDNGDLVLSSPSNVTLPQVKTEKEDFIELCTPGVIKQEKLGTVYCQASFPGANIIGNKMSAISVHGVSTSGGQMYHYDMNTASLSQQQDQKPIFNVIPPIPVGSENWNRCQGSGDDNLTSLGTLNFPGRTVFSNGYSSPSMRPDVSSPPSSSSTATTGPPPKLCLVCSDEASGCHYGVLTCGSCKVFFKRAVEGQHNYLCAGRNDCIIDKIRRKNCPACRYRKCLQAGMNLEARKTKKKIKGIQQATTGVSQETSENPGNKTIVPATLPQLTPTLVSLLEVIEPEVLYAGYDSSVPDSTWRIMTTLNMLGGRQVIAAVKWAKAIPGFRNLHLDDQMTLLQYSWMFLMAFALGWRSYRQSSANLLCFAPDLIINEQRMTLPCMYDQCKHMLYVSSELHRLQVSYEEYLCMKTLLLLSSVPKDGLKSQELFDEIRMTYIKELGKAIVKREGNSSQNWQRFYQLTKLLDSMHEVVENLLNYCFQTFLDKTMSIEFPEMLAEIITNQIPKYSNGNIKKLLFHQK
Description: Binding Buffer: TEGM (10 mM Tris-HCl, 1 mM EDTA, 10% glycerol, 1 mM beta-mercaptoethanol, 10 mM Sodium Molybdate, pH 7.2)
50% HAP Slurry: Calbiochem Hydroxylapatite, Fast Flow, in 10 mM Tris, pH 8.0 and 1 mM EDTA.
Wash Buffer: 40 mM Tris, pH7.5, 100 mM KCl, 1 mM EDTA and 1 mM EGTA.
Dexmethasone-methyl-^3H, (DEX*); (Amersham cat# TRK645)
Dexamethasone (DEX) (Sigma, cat# D1756):
Phenol red-free Trypsin-EDTA is diluted in the same PBS 1:10. The cell layers are rinsed with 1× Trypsin, extra Trypsin is poured out, and the cell layers are incubated at 37° C. for ˜2 min. The flask is tapped and checked for signs of cell detachment. Once the cells begin to slide off the flask, the complete media is added. The cells are counted at this point, then diluted to the appropriate concentration and split into flasks or dishes for further culturing (Usually 1:3 to 1:6 dilution).
Preparation of Hela Cell Lysate
The cell pellet is washed twice with TEGM (10 mM Tris-HCl, 1 mM EDTA, 10% glycerol, 1 mM beta-mercaptoethanol, 10 mM Sodium Molybdate, pH 7.2). After the final wash, the cells are resuspended in TEGM at a concentration of 10^7 cells/mL. The cell suspension is snap frozen in liquid nitrogen or ethanol/dry ice bath and transferred to −80° C. freezer on dry ice. Before setting up the binding assay, the frozen samples are left on ice-water to just thaw (˜1 hr). Then the samples are centrifuged at 12,500 g to 20,000 g for 30 min at 4° C. The supernatant is used to set-up assay right away. If using 50 μL of supernatant, the test compound can be prepared in 50 μL of the TEGM buffer.
Procedure for Multiple Compound Screening
1×TEGM buffer is prepared, and the isotope-containing assay mixture is prepared in the following order: EtOH (2% final concentration in reaction), 3H-DEX (Amersham Biosciences) and 1×TEGM. [e.g. For 100 samples, 200 μL (100×2) of EtOH+4.25 μL of 1:10 ^3H-Dex stock+2300 μL (100×23) 1×TEGM]. The compound is serially diluted, e.g., if starting final conc. is 1 μM, and the compound is in 25 μL of solution, for duplicate samples, 75 μL of 4×1 μM solution is made and 3 μL of 100 μM is added to 72 μL of buffer, and 1:5 serial dilution.
25 μL of ^3H-DEX (6 nM) trace and 25 μL compound solution are first mixed together, followed by addition of 50 μL receptor solution. The reaction is gently mixed, spun briefly at about 200 rpm and incubated at 4° C. overnight. 100 μL of 50% HAP slurry is prepared and added to the incubated reaction which is then vortexed and incubated on ice for 5 to 10 minutes. The reaction mixture is vortexed twice more to resuspend HAP while incubating reaction. The samples in 96-well format are then washed in wash buffer using The FilterMate™ Universal Harvester plate washer (Packard). The washing process transfers HAP pellet containing ligand-bound expressed receptor to Unifilter-96 GF/B filter plate (Packard). The HAP pellet on the filter plate is incubated with 50 μL of MICROSCINT (Packard) scintillant for 30 minutes before being counted on the TopCount microscintillation counter (Packard). IC50s are calculated using DEX as a reference.

| SMILES | Ki [nM] |
| --- | --- |
| CC(O)(C(N)=O)c1ccccc1CC[C@]1(O)CCC2=Cc3c(cnn3-c3ccc(F)cc3)C[C@@]21C (single isomer, unassigned) [Example 150] | 11 |
| CC(C(N)=O)c1ccccc1CC[C@]1(O)CCC2=Cc3c(cnn3-c3ccc(F)cc3)C[C@@]21C (single isomer, unassigned) [Example 196] | 1.8 |
| C[C@]12Cc3cnn(-c4ccc(F)cc4)c3C=C1CC[C@@]2(O)CCc1ccccc1C(F)C(N)=O (single isomer, unassigned) [Example 198] | 2.44 |
| CCNC(=O)c1ccccc1CC[C@]1(O)CCC2=Cc3c(cnn3-c3ccc(F)cc3)C[C@@]21C [Example 2, N-ethyl-2-{2-[(4αS,5R)-1-(4-fluorophenyl)-5-hydroxy-4α-methyl-1,4,4α,5,6,7-hexahydrocyclopenta[f]indazol-5-yl]ethyl}benzamide] | 2.08 |
| C[C@]12Cc3cnn(-c4ccc(F)cc4)c3C=C1CC[C@@]2(O)CCc1ccccc1CNS(=O)(=O)C1CC1 [Example 5, N-(2-{2-[(4αS,5R)-1-(4-fluorophenyl)-5-hydroxy-4α-methyl-1,4,4α,5,6,7-hexahydrocyclopenta[f]indazol-5-yl]ethyl}benzyl)cyclopropanesulfonamide] | 0.44 |
| C[C@]12Cc3cnn(-c4ccc(F)cc4)c3C=C1CC[C@@]2(O)CCc1ccccc1N1CCC1=O [Example 11, 1-(2-{2-[(4αS,5R)-1-(4-fluorophenyl)-5-hydroxy-4α-methyl-1,4,4α,5,6,7-hexahydrocyclopenta[f]indazol-5-yl]ethyl}phenyl)azetidin-2-one] | 2.37 |
| CC(=O)Nc1ccccc1CC[C@]1(O)CCC2=Cc3c(cnn3-c3ccc(F)cc3)C[C@@]21C [Example 14, N-(2-{2-[(4αS,5R)-1-(4-fluorophenyl)-5-hydroxy-4α-methyl-1,4,4α,5,6,7-hexahydrocyclopenta[f]indazol-5-yl]ethyl}phenyl)acetamide] | 6.38 |
| C[C@]12Cc3cnn(-c4ccc(F)cc4)c3C=C1CC[C@@]2(O)CCc1ccccc1NS(=O)(=O)C1CC1 [Example 15, N-(2-{2-[(4αS,5R)-1-(4-fluorophenyl)-5-hydroxy-4α-methyl-1,4,4α,5,6,7-hexahydrocyclopenta[f]indazol-5-yl]ethyl}phenyl)cyclopropanesulfonamide] | 1.17 |
| C[C@]12Cc3cnn(-c4ccc(F)cc4)c3C=C1CC[C@@]2(O)CCc1ccccc1S(C)(=O)=O [Example 19, (4αS,5R)-1-(4-fluorophenyl)-4α-methyl-5-{2-[2-(methylsulfonyl)phenyl]ethyl}-1,4,4α,5,6,7-hexahydrocyclopenta[f]indazol-5-ol] | 1.13 |
| CNC(=O)Cc1ccccc1CC[C@]1(O)CCC2=Cc3c(cnn3-c3ccc(F)cc3)C[C@@]21C [Example 23, 2-(2-{2-[(4αS,5R)-1-(4-fluorophenyl)-5-hydroxy-4α-methyl-1,4,4α,5,6,7-hexahydrocyclopenta[f]indazol-5-yl]ethyl}phenyl)-N-methylacetamide] | 5.09 |
| COC(=O)C1(NC(=O)c2ccccc2CC[C@]2(O)CCC3=Cc4c(cnn4-c4ccc(F)cc4)C[C@@]32C)CC1 [Example 26, methyl 1-[(2-{2-[(4αS,5R)-1-(4-fluorophenyl)-5-hydroxy-4α-methyl-1,4,4α,5,6,7-hexahydrocyclopenta[f]indazol-5-yl]ethyl}benzoyl)amino]cyclopropanecarboxylate] | 1.37 |
| CC1(NC(=O)c2ccccc2CC[C@]2(O)CCC3=Cc4c(cnn4-c4ccc(F)cc4)C[C@@]32C)CC1 [Example 28, 2-{2-[(4αS,5R)-1-(4-fluorophenyl)-5-hydroxy-4α-methyl-1,4,4α,5,6,7-hexahydrocyclopenta[f]indazol-5-yl]ethyl}-N-(1-methylcyclopropyl)benzamide] | 3.55 |
| CC(C)CNC(=O)c1ccccc1CC[C@]1(O)CCC2=Cc3c(cnn3-c3ccc(F)cc3)C[C@@]21C [Example 29, 2-{2-[(4αS,5R)-1-(4-fluorophenyl)-5-hydroxy-4α-methyl-1,4,4α,5,6,7-hexahydrocyclopenta[f]indazol-5-yl]ethyl}-N-isobutylbenzamide] | 1.14 |
| CCCNC(=O)c1ccccc1CC[C@]1(O)CCC2=Cc3c(cnn3-c3ccc(F)cc3)C[C@@]21C [Example 30, 2-{2-[(4αS,5R)-1-(4-fluorophenyl)-5-hydroxy-4α-methyl-1,4,4α,5,6,7-hexahydrocyclopenta[f]indazol-5-yl]ethyl}-N-propylbenzamide] | 1.52 |
| CC(CNC(=O)c1ccccc1CC[C@]1(O)CCC2=Cc3c(cnn3-c3ccc(F)cc3)C[C@@]21C)C(F)(F)F (stereo partly drawn) [Example 31, 2-{2-[(4αS,5R)-1-(4-fluorophenyl)-5-hydroxy-4α-methyl-1,4,4α,5,6,7-hexahydrocyclopenta[f]indazol-5-yl]ethyl}-N-(3,3,3-trifluoro-2-methylpropyl)benzamide] | 0.9 |
| C=C(C)CNC(=O)c1ccccc1CC[C@]1(O)CCC2=Cc3c(cnn3-c3ccc(F)cc3)C[C@@]21C [Example 32, 2-{2-[(4αS,5R)-1-(4-fluorophenyl)-5-hydroxy-4α-methyl-1,4,4α,5,6,7-hexahydrocyclopenta[f]indazol-5-yl]ethyl}-N-(2-methylprop-2-en-1-yl)benzamide] | 0.49 |
| C=CCNC(=O)c1ccccc1CC[C@]1(O)CCC2=Cc3c(cnn3-c3ccc(F)cc3)C[C@@]21C [Example 33, N-allyl-2-{2-[(4αS,5R)-1-(4-fluorophenyl)-5-hydroxy-4α-methyl-1,4,4α,5,6,7-hexahydrocyclopenta[f]indazol-5-yl]ethyl}benzamide] | 1.13 |
| CC1(NC(=O)c2ccccc2CC[C@]2(O)CCC3=Cc4c(cnn4-c4ccccc4)C[C@@]32C)CC1 [Example 34, 2-{2-[(4αS,5R)-5-hydroxy-4α-methyl-1-phenyl-1,4,4α,5,6,7-hexahydrocyclopenta[f]indazol-5-yl]ethyl}-N-(1-methylcyclopropyl)benzamide] | 5.29 |
| CC(C)NC(=O)c1ccccc1CC[C@]1(O)CCC2=Cc3c(cnn3-c3ccc(F)cc3)C[C@@]21C [Example 35, 2-{2-[(4αS,5R)-1-(4-fluorophenyl)-5-hydroxy-4α-methyl-1,4,4α,5,6,7-hexahydrocyclopenta[f]indazol-5-yl]ethyl}-N-isopropylbenzamide] | 3.55 |

same assay, conditions: Table 2; prior-art comparison compounds

| SMILES | Ki [nM] |
| --- | --- |
| C[C@]12Cc3cnn(-c4ccc(F)cc4)c3C=C1CC[C@@]2(O)CCc1ccccc1 [Example 2 WO 2004/075840 A2, reference compound] | 5.24 |
| C[C@]12Cc3cnn(-c4ccc(F)cc4)c3C=C1CCC[C@@H]2[C@@H](O)Cc1ccccc1 [Example 22 WO 03/086294 A2, reference compound] | 1.27 |
